pIC50: −log10 of the molar value.
Tests used:
ACAT = target: T1, ACAT (Oryctolagus cuniculus, UniProt G1SFD9); test: ACAT-inhibitory activity (in-vitro test, esterification of cholesterol with oleoyl-CoA, microsome of the small intestine of a rabbit); type: biochemical
T1 construct: by using the microsome of the small intestine of a rabbit as an enzyme source; from tissue; host or cells: rabbit small intestine, microsomes
T1 sequence (G1SFD9 1-524): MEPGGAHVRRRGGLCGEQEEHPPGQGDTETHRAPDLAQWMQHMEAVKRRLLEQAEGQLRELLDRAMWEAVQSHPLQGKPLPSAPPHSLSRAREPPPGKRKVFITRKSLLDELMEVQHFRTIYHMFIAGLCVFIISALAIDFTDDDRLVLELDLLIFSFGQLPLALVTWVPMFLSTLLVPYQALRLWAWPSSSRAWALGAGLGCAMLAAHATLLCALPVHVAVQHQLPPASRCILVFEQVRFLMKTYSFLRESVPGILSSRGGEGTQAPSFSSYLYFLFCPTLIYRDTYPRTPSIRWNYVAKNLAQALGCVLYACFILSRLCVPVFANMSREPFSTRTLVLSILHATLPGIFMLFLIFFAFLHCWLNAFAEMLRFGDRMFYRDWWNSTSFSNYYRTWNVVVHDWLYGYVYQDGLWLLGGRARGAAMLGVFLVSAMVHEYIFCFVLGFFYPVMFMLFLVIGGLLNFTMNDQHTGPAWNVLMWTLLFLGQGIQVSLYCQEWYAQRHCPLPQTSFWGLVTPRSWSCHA
Experimental: Representative compounds according to the present invention were examined for ACAT-inhibitory activity according to the in-vitro test proposed in Journal of Lipid Research, vol.
The inhibitory activity of a test compound against esterification or acylation of cholesterol with oleoyl CoA or acyl-CoA was evaluated by using the microsome of the small intestine of a rabbit as an enzyme source and determining the amount of a radioisotope-labeled cholesterol oleate made from a radioisotope-labeled oleoyl-CoA and (free) cholesterol.

[1] = In-vivo test: serum cholesterol level in hypercholesterolemic rats; parameters: species or system male Sprague-Dawley rat; details: oral, once a day, 10 mg per kg; food containing 1% of cholesterol for 2 days
Experimental: A male Sprague-Dawley rat was made to get hypercholesterolemia by feeding with food containing 1% of cholesterol for 2 days. A compound of the present invention (compound of Example 1, 54, 17 or 64) was orally administered to the rat once a day in a dose of 10 mg per kg of the weight.

[2] = One week toxic study in rats; type: in vivo, Sprague-Dawley rats; details: oral, 100 mg/kg daily for one week; for toxicity (overall finding of one week study): same condition
Experimental: The compound was orally given to animals at daily does of 100 mg/kg for one week.

SMILES | pIC50 (ACAT) | lowering of serum cholesterol level [1] | toxicity (overall finding of one week study) [2] | toxicological symptom during the administration [2]
CCCCCNC(=O)Nc1c(OCCCn2cnc(-c3ccccc3)c2C)cccc1N(C)C [Example 1, N-[6-N,N-Dimethylamino-2-{3-(5-methyl-4-phenyl-1H-imidazol-1-yl)propoxy}]phenyl-N'-pentylurea] | 7.37 | effectively lowered | no toxic substances | –
CCCCNC(=O)Nc1c(OCCCn2cnc(-c3ccccc3)c2)cccc1N(C)C [Example 2, N-[6-N,N-Dimethylamino-2-{3-(4-phenyl-1H-imidazol-1-yl)propoxy}]phenyl-N'-butylurea] | – | – | no toxic substances | –
CCCCCNC(=O)Nc1c(OCCCn2cnc(-c3ccccc3)c2)cccc1N(C)C [Example 5, N-[6-N,N-Dimethylamino-2-{3-(4-phenyl-1H-imidazol-1-yl)propoxy}]phenyl-N'-pentylurea] | – | – | no toxic substances | –
CCCCCCNC(=O)Nc1c(OCCCn2cnc(-c3ccccc3)c2)cccc1N(C)C [Example 17, N-[6-N,N-Dimethylamino-2-{3-(4-phenyl-1H-imidazol-1-yl)propoxy}]phenyl-N'-hexylurea] | 7.51 | effectively lowered | no toxic substances | –
CCCCNC(=O)Nc1c(C)cccc1OCCCn1cnc(-c2ccccc2)c1 [Example 54, N-[6-Methyl-2-{3-(4-phenyl-1H-imidazol-1-yl)propoxy}]-phenyl-N'-butylurea] | 7.32 | effectively lowered | – | –
CCCCCNC(=O)Nc1c(OCCCN2CCN(c3ccccc3)CC2)cccc1N(C)C [Example 64, N-[6-N,N-Dimethylamino-2-{3-(4-phenylpiperazin-1-yl)propoxy}]phenyl-N'-pentylurea] | 7.77 | effectively lowered | – | –
CCCCNC(=O)Nc1c(C)cccc1OCCCn1cnc(-c2ccccc2)c1C(C)C [Example 80, N-[6-Methyl-2-[3-{5-(1-methylethyl)-4-phenyl-1H-imidazol-1-yl}propoxy]]phenyl-N'-butylurea] | 7.06 | – | no toxic substances | –
CCCCNC(=O)Nc1c(C)cccc1OCCCn1cnc(-c2ccccc2)c1CC [Example 81, N-[6-Methyl-2-{3-(5-ethyl-4-phenyl-1H-imidazol-1-yl)-propoxy}]phenyl-N'-butylurea] | – | – | no toxic substance | No toxicological sympton was observed
CCCCCNC(=O)Nc1c(C)cccc1OCCCn1cnc(-c2ccccc2)c1Cl [Example 93, N-[6-Methyl-2-{3-(5-chloro-4-phenyl-1H-imidazol-1-yl)-propoxy}]phenyl-N'-pentylurea] | 7.31 | – | – | –
CCCCCNC(=O)Nc1c(C)cccc1OCCCn1cnc(-c2ccccc2)c1C [Example 127, N-[6-Methyl-2-{3-(5-methyl-4-phenyl-1H-imidazol-1-yl)-propoxy}]phenyl-N'-pentylurea] | 7.00 | – | no toxic substances | –

Source: patent US5668136A, “Trisubstituted benzene derivatives, composition and methods of treatment” (priority 1990, dated 1997)
